According to patent publication US20110312941A1, “1,4-DISUBSTITUTED PIPERIDINES AS VASOPRESSIN RECEPTOR VIA ANTAGONISTS” (VANTIA LIMITED, priority 2009, published 2011):

target: T1, cloned human V1a receptor (Homo sapiens, UniProt P37288); test: in vitro functional calcium mobilisation assay (FLIPR), antagonist activity, 1321N1 cells, 250 pM AVP; format: cell-based; conditions: functional pKi derived from pIC50 (Equation 1), FLIPR Ca2+ mobilisation, 1321N1 cells expressing cloned human V1a receptor, read-out: Mean fpKi (Human V1a) (converted)
T1 construct: host or cells: human brain astrocytoma 1321N1 cells
Experimental: The primary assay which may be used to determine the ability of the compounds of formula (1) to inhibit the vasopressin V1a receptor is an in vitro functional calcium mobilisation assay (FLIPR) that measures antagonist activity at a cloned human V1a receptor. The assay is described below.
The antagonist activity of compounds of formula (1) were determined in a Calcium (Ca2+) mobilisation assay using whole cells (human brain astrocytoma 1321N1 cells, ex Perkin Elmer) genetically modified to stably express a cloned human V1a receptor. Dose response curves were determined by displacement of a single concentration of agonist (250 pM AVP, ex Sigma) with increasing concentrations of compound. A pIC50 value is determined by non-linear regression to a 4-parameter logistic equation and a functional pKi (fpKi) derived using Equation 1.
where A=agonist single conc, and A50=the agonist EC50.

T1 sequence (P37288 whole entry): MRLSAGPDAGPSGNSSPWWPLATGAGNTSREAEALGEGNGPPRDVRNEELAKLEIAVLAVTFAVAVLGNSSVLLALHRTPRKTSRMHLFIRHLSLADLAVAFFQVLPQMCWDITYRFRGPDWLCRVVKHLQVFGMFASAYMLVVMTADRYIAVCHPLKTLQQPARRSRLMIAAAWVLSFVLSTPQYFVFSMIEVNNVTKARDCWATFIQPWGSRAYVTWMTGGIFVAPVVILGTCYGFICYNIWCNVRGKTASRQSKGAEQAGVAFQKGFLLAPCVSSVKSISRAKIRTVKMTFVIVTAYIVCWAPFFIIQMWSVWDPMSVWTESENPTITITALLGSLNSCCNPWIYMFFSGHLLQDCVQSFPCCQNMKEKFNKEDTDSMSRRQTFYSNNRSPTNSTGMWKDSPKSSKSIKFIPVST

Row | SMILES | Ki
1 | Cc1ccc(N2CCC(C(=O)N3CCc4nc(N5CCOCC5)[nH]c4-c4cc(C)ccc43)CC2)nc1 [Example 1, (9-Methyl-2-morpholin-4-yl-4,5-dihydro-1H-1,3,6-triaza-benzo[e]azulen-6-yl)-(5′-methyl-3,4,5,6-tetrahydro-2H-[1,2′]bipyridinyl-4-yl)-methanone] | 0.977 nM
2 | Cc1ccc2c(c1)-c1[nH]c(N3CCOCC3)nc1CCN2C(=O)C1CCN(c2ncccc2C)CC1 [Example 2, (9-Methyl-2-morpholin-4-yl-4,5-dihydro-1H-1,3,6-triaza-benzo[e]azulen-6-yl)-(3′-methyl-3,4,5,6-tetrahydro-2H-[1,2′]bipyridinyl-4-yl)-methanone] | 1.45 nM
3 | COc1cccnc1N1CCC(C(=O)N2CCc3nc(N4CCOCC4)[nH]c3-c3cc(C)ccc32)CC1 [Example 3, (3′-Methoxy-3,4,5,6-tetrahydro-2H-[1,2′]bipyridinyl-4-yl)-(9-methyl-2-morpholin-4-yl-4,5-dihydro-1H-1,3,6-triaza-benzo[e]azulen-6-yl)-methanone] | 0.977 nM
4 | Cc1ccc2c(c1)-c1[nH]c(N3CCOCC3)nc1CCN2C(=O)C1CCN(c2ccc(C)nc2)CC1 [Example 4, (9-Methyl-2-morpholin-4-yl-4,5-dihydro-1H-1,3,6-triaza-benzo[e]azulen-6-yl)-(6′-methyl-3,4,5,6-tetrahydro-2H-[1,3′]bipyridinyl-4-yl)-methanone] | 1.48 nM
5 | Cc1cccc(N2CCC(C(=O)N3CCc4nc(N5CCOCC5)[nH]c4-c4cc(F)ccc43)CC2)n1 [Example 5, (9-Fluoro-2-morpholin-4-yl-4,5-dihydro-1H-1,3,6-triaza-benzo[e]azulen-6-yl)-(6′-methyl-3,4,5,6-tetrahydro-2H-[1,2′]bipyridinyl-4-yl)-methanone] | 1.78 nM
6 | Cc1nc2c([nH]1)-c1ccccc1N(C(=O)C1CCN(c3ncccn3)CC1)CC2 [Example 6] | 912 nM
7 | Cc1nc2c([nH]1)-c1cc(Cl)ccc1N(C(=O)C1CCN(c3ncccn3)CC1)CC2 [Example 7] | 49 nM
8 | Cc1nc2c([nH]1)-c1ccccc1N(C(=O)C1CCN(c3ccccn3)CC1)CC2 [Example 8] | 151 nM
9 | O=C(C1CCN(c2ccccn2)CC1)N1CCc2nc(N3CCOCC3)[nH]c2-c2ccccc21 [Example 9] | 18.2 nM
10 | Cc1cccnc1N1CCC(C(=O)N2CCc3nc(N4CCOCC4)[nH]c3-c3ccccc32)CC1 [Example 10] | 5.01 nM
11 | Cc1ccnc(N2CCC(C(=O)N3CCc4nc(N5CCOCC5)[nH]c4-c4ccccc43)CC2)c1 [Example 11] | 3.72 nM
12 | Cc1ccc(N2CCC(C(=O)N3CCc4nc(N5CCOCC5)[nH]c4-c4ccccc43)CC2)nc1 [Example 12] | 2.14 nM
13 | O=C(C1CCN(c2ccccn2)CC1)N1CCc2nc(N3CCOCC3)[nH]c2-c2cc(F)ccc21 [Example 13] | 7.94 nM
14 | Cc1cccnc1N1CCC(C(=O)N2CCc3nc(N4CCOCC4)[nH]c3-c3cc(F)ccc32)CC1 [Example 14] | 2.51 nM
15 | Cc1ccnc(N2CCC(C(=O)N3CCc4nc(N5CCOCC5)[nH]c4-c4cc(F)ccc43)CC2)c1 [Example 15] | 1.95 nM
16 | Cc1ccc(N2CCC(C(=O)N3CCc4nc(N5CCOCC5)[nH]c4-c4cc(F)ccc43)CC2)nc1 [Example 16] | 2.95 nM
17 | CCc1nc2c([nH]1)-c1cc(C)ccc1N(C(=O)C1CCN(c3ncccc3C)CC1)CC2 [Example 17] | 5.01 nM
18 | CCc1nc2c([nH]1)-c1cc(C)ccc1N(C(=O)C1CCN(c3cc(C)ccn3)CC1)CC2 [Example 18] | 2.29 nM
19 | CCc1nc2c([nH]1)-c1cc(C)ccc1N(C(=O)C1CCN(c3cc(C)ccn3)CC1)CC2 [Example 19] | 2.34 nM
20 | CCCc1nc2c([nH]1)-c1cc(C)ccc1N(C(=O)C1CCN(c3ccccn3)CC1)CC2 [Example 20] | 12.3 nM
21 | CCCc1nc2c([nH]1)-c1cc(C)ccc1N(C(=O)C1CCN(c3ncccc3C)CC1)CC2 [Example 21] | 4.47 nM
22 | CCCc1nc2c([nH]1)-c1cc(C)ccc1N(C(=O)C1CCN(c3cc(C)ccn3)CC1)CC2 [Example 22] | 2.04 nM
23 | CCCc1nc2c([nH]1)-c1cc(C)ccc1N(C(=O)C1CCN(c3ccc(C)cn3)CC1)CC2 [Example 23] | 2.14 nM

Row | SMILES | Ki
24 | Cc1ccc2c(c1)-c1[nH]c(C3CC3)nc1CCN2C(=O)C1CCN(c2ccccn2)CC1 [Example 24] | 8.71 nM
25 | Cc1ccc(N2CCC(C(=O)N3CCc4nc(C5CC5)[nH]c4-c4cc(C)ccc43)CC2)nc1 [Example 25] | 1.51 nM
26 | CCCCc1nc2c([nH]1)CCN(C(=O)C1CCN(c3ccccn3)CC1)c1ccc(C)cc1-2 [Example 26] | 18.2 nM
27 | CCCCc1nc2c([nH]1)CCN(C(=O)C1CCN(c3ccc(C)cn3)CC1)c1ccc(C)cc1-2 [Example 27] | 4.47 nM
28 | Cc1ccc2c(c1)-c1nc(CC(C)C)[nH]c1CCN2C(=O)C1CCN(c2ccccn2)CC1 [Example 28] | 13.5 nM
29 | Cc1ccc(N2CCC(C(=O)N3CCc4[nH]c(CC(C)C)nc4-c4cc(C)ccc43)CC2)nc1 [Example 29] | 2.69 nM
30 | Cc1ccc(N2CCC(C(=O)N3CCc4nc(N5CCN(C)CC5)[nH]c4-c4cc(C)ccc43)CC2)nc1 [Example 30] | 1.78 nM
31 | Cc1ccc2c(c1)-c1[nH]c(N3CCOCC3)nc1CCN2C(=O)C1CCN(c2ccccn2)CC1 [Example 31] | 3.8 nM
32 | Cc1ccnc(N2CCC(C(=O)N3CCc4nc(N5CCOCC5)[nH]c4-c4cc(C)ccc43)CC2)c1 [Example 32] | 1.58 nM
33 | COc1ccnc(N2CCC(C(=O)N3CCc4nc(N5CCOCC5)[nH]c4-c4cc(C)ccc43)CC2)c1 [Example 33] | 0.977 nM
34 | COc1ccc(N2CCC(C(=O)N3CCc4nc(N5CCOCC5)[nH]c4-c4cc(C)ccc43)CC2)nc1 [Example 34] | 2.69 nM
35 | Cc1ccc2c(c1)-c1[nH]c(N3CCOCC3)nc1CCN2C(=O)C1CCN(c2ccc(C(F)(F)F)cn2)CC1 [Example 35] | 7.08 nM
36 | Cc1ccc2c(c1)-c1[nH]c(N3CCOCC3)nc1CCN2C(=O)C1CCN(c2ccc(C#N)cn2)CC1 [Example 36] | 97.7 nM
37 | Cc1ccc2c(c1)-c1[nH]c(C3CCOCC3)nc1CCN2C(=O)C1CCN(c2ncccc2C)CC1 [Example 37] | 4.37 nM
38 | Cc1ccnc(N2CCC(C(=O)N3CCc4nc(C5CCOCC5)[nH]c4-c4cc(C)ccc43)CC2)c1 [Example 38] | 2.24 nM
39 | Cc1ccc(N2CCC(C(=O)N3CCc4nc(C5CCOCC5)[nH]c4-c4cc(C)ccc43)CC2)nc1 [Example 39] | 2 nM
40 | COc1cccnc1N1CCC(C(=O)N2CCc3nc(C4CCOCC4)[nH]c3-c3cc(C)ccc32)CC1 [Example 40] | 1.26 nM
41 | COc1ccnc(N2CCC(C(=O)N3CCc4nc(C5CCOCC5)[nH]c4-c4cc(C)ccc43)CC2)c1 [Example 41] | 2.34 nM
42 | COc1ccc(N2CCC(C(=O)N3CCc4nc(C5CCOCC5)[nH]c4-c4cc(C)ccc43)CC2)nc1 [Example 42] | 5.62 nM
43 | Cc1ccc(N2CCC(C(=O)N3CCc4nc(N5CCCC5)[nH]c4-c4cc(C)ccc43)CC2)nc1 [Example 43] | 7.59 nM
44 | Cc1nc2c([nH]1)-c1cc(Cl)ccc1N(C(=O)C1CCN(c3ccccn3)CC1)CC2 [Example 44] | 12.6 nM
45 | Cc1ccc(N2CCC(C(=O)N3CCc4nc(C)[nH]c4-c4cc(Cl)ccc43)CC2)nc1 [Example 45, (9-Chloro-2-methyl-4,5-dihydro-1H-1,3,6-triaza-benzo[e]azulen-6-yl)-(5′-methyl-3,4,5,6-tetrahydro-2H-[1,2′]bipyridinyl-4-yl)-methanone] | 6.31 nM
